Counter-ions that a name gives are not always drawn.
The compounds below were run against T1, mutant BEST1 R218C (Homo sapiens, UniProt O76090, R218C) (assay: YFP-based I- efflux assay in MDCKII cells co-expressing YFP and mutant BEST1 R218C). Details: 5 μM, compound addition for 24 h, FIGS. 6-8.
T1 construct: expressed in transfected cells
T1 sequence (O76090 1-585 R218C): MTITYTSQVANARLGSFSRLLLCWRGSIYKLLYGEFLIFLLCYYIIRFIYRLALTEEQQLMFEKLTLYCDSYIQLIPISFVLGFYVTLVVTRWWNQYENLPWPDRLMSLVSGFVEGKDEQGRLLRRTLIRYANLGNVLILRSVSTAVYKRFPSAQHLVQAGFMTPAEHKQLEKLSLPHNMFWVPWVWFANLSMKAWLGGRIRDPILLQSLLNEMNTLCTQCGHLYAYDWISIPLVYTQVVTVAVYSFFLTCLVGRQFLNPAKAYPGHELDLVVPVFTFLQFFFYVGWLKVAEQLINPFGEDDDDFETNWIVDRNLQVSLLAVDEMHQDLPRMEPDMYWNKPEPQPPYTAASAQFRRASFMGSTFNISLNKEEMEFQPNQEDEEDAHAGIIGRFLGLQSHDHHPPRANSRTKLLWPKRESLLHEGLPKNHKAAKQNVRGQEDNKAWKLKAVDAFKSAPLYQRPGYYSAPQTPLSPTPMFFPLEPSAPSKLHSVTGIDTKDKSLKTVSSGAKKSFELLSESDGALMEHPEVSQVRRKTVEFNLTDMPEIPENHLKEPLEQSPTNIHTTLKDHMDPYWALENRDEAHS
Assay type: cell-based
Method: MDCKII cells co-expressing yellow fluorescence protein (YFP) and mutant BEST1 R218C were seeded on black 96-well plates and cultivated for 6 days to achieve polarity, a crucial requirement for correct basolateral localization of BEST1 in epithelial cells. Compounds were tested at 5 μM concentration in a 96-well format. After compound addition for 24 h, cells were subjected to an outwardly directed iodid (I^−)-gradient to drive BEST1-mediated I^− efflux and produce increasing fluorescence signals. Each assay consisted of recording of YFP quenching after I^− pre-incubation for 6 min (=100% value), followed by 7 min of recording of increasing fluorescence after addition of the chloride (Cr) containing solution. Changes of fluorescence intensities were monitored on a plate reader. The effect on the kinetics of I— efflux was tested for Biochanin A (FIG. 6A), Trimethoxyisoflavone (FIG. 6B), 5,4-dimethoxy hydroxyisoflavone (FIG. 6C), Biochanin A-7-methyl ether (FIG. 6D), Biochanin A-7-acetate (FIG. 6E), Biochanin A diacetate (FIG. 6F), Biochanin A-7-pentanoate (FIG. 6G), Biochanin A dipentanoate (FIG. 6H), Biochanin A-7-pivalate (FIG. 7A), Biochanin A-dipavalate (FIG. 7B), Biochanin A-7-acrylate (FIG. 7C), Biochanin A diacrylate (FIG. 7D), Biochanin A-7-methyl fumarate (FIG. 7E), Biochanin A-di(methyl fumarate) (FIG. 7F), Biochanin A-7-butylcarbamate (FIG. 7G), Biochanin A di(butylcarbamate) (FIG. 7H), Biochanin A-7-phosphate disodium salt (FIG. 8A), Biochanin A-7-isopropylate (FIG. 8B), 7-pivaloxymethyl-Biochanin A (FIG. 8C), Biochanin A diisopropylate (FIG. 8D), Biochanin A-7-isopropyl carbonate (FIG. 8E), Biochanin A diisopropyl carbonate (FIG. 8F), Isopropyloxycarbonylmethoxy-Biochanin A (FIG. 8G).

Row | Compound | anion transport activity (kinetics of I- efflux) in comparison to untreated cells
1 | CCCCNC(=O)Oc1cc(OC(=O)NCCCC)c2c(=O)c(-c3ccc(OC)cc3)coc2c1 [Biochanin A di(butylcarbamate)] | strongly increased
2 | C=CC(=O)Oc1cc(OC(=O)C=C)c2c(=O)c(-c3ccc(OC)cc3)coc2c1 [Biochanin A diacrylate] | strongly increased
3 | COc1ccc(-c2coc3cc(OC(=O)OC(C)C)cc(OC(=O)OC(C)C)c3c2=O)cc1 [Biochanin A diisopropyl carbonate] | strongly increased
4 | COc1ccc(-c2coc3cc(OC(=O)C(C)C)cc(OC(=O)C(C)C)c3c2=O)cc1 [Biochanin A diisopropylate] | strongly increased
5 | CCCCC(=O)Oc1cc(OC(=O)CCCC)c2c(=O)c(-c3ccc(OC)cc3)coc2c1 [Biochanin A dipentanoate] | strongly increased
6 | CCCCNC(=O)Oc1cc(O)c2c(=O)c(-c3ccc(OC)cc3)coc2c1 [Biochanin A-7-butylcarbamate] | no or only minimal effect
7 | COc1ccc(-c2coc3cc(OP(=O)([O-])[O-])cc(O)c3c2=O)cc1.[Na+].[Na+] [Biochanin A-7-phosphate disodium salt] | noticeable increased
8 | COC(=O)/C=C/C(=O)Oc1cc(OC(=O)/C=C/C(=O)OC)c2c(=O)c(-c3ccc(OC)cc3)coc2c1 [Biochanin A-di(methyl fumarate), Biochanin A di(methyl fumarate)] | strongly increased
9 | COc1ccc(-c2coc3cc(OC(=O)C(C)(C)C)cc(OC(=O)C(C)(C)C)c3c2=O)cc1 [Biochanin A-dipavalate, Biochanin A dipivalate] | noticeable increased

Now from value to compound:

Row | anion transport activity (kinetics of I- efflux) in comparison to untreated cells | Compound
10 | noticeable increased | COc1ccc(-c2coc3cc(OCOC(=O)OC(C)C)cc(O)c3c2=O)cc1
11 | no or only minimal effect | COc1ccc(-c2coc3cc(O)cc(OC)c3c2=O)cc1 [5,4-dimethoxy-7-hydroxyisoflavone]
12 | noticeable increased | COc1ccc(-c2coc3cc(OCOC(=O)C(C)(C)C)cc(O)c3c2=O)cc1 [7-pivaloxymethyl-Biochanin A, 7-Pivaloxymethyl-Biochanin A]
13 | no or only minimal effect | COc1ccc(-c2coc3cc(OC(C)=O)cc(O)c3c2=O)cc1 [Biochanin A-7-acetate]
14 | noticeable increased | C=CC(=O)Oc1cc(O)c2c(=O)c(-c3ccc(OC)cc3)coc2c1 [Biochanin A-7-acrylate]
15 | strongly increased | COc1ccc(-c2coc3cc(OC(=O)OC(C)C)cc(O)c3c2=O)cc1 [Biochanin A-7-isopropyl carbonate]
16 | no or only minimal effect | COc1ccc(-c2coc3cc(OC(=O)C(C)C)cc(O)c3c2=O)cc1 [Biochanin A-7-isopropylate]
17 | no or only minimal effect | COc1ccc(-c2coc3cc(OC)cc(O)c3c2=O)cc1 [Biochanin A-7-methyl ether]
18 | no or only minimal effect | COC(=O)/C=C/C(=O)Oc1cc(O)c2c(=O)c(-c3ccc(OC)cc3)coc2c1 [Biochanin A-7-methyl fumarate]
19 | no or only minimal effect | CCCCC(=O)Oc1cc(O)c2c(=O)c(-c3ccc(OC)cc3)coc2c1 [Biochanin A-7-pentanoate]
20 | no or only minimal effect | COc1ccc(-c2coc3cc(OC(=O)C(C)(C)C)cc(O)c3c2=O)cc1 [Biochanin A-7-pivalate]
21 | no or only minimal effect | COc1ccc(-c2coc3cc(O)cc(O)c3c2=O)cc1 [Biochanin A]

The compounds below were run against T1, mutant BEST1 R218C (assay: YFP-halide transport assay (I- influx), MDCKII cells expressing mutant BEST1-R218C). Details: MDCKII cells; cell line not stated; FIG. 4D.
Assay type: cell-based
Method: Human hiPSC-RPE or MDCKII cells were transduced via lentivirus particles which were produced by co-transfecting HEK293T cells with the yellow fluorescence protein (YFPH148Q/I152L)-pLJM1 and helper plasmids pMD2.G and psPAX2 using the Ca^2+ phospate transfection method. After six weeks of cultivation in 96-well black microtiter plates, cells were incubated with 100 mM Cl^− containing solution and basal YFP fluorescence was measured in a Tecan microplate reader. Subsequently Cl^− was replaced with equimolar I^− and decrease of YFP fluorescence intensity was monitored for another 2 min in 10 sec intervals.
To analyze BEST1-mediated anion transport in the cell lines generated in the previous examples, a well-established halide transport assay (Galietta et al., 2001) was adapted. […] Addition of I— leads to specific YFP quenching over time and changes of fluorescence intensities can be monitored on a plate reader. MDCKII cells were incubated with 100 mM Cl— containing solution and steady state YFP fluorescence signal intensities were measured after 6 minutes. Subsequently, Cl— was replaced by equimolar I— and anion permeability was monitored by decreasing YFP intensities as a result of BEST1-mediated I— influx in a time course up to 2 minutes (FIG. 2B). For several independent BEST1 wildtype cell lines a fast kinetic of decreasing fluorescence intensities to ˜30 to 40% was observed while the untransfected control cell lines remained flat (FIGS. 2C and D).
Example 8—Evaluation of BioA(C2H3O2)2 activity in MDCKII cells MDCKII cells co-expressing YFP and BEST1 wildtype or mutant p.(R218C) were seeded on black 96-well plates and cultivated for 6 days to achieve polarity, a requirement for correct basolateral localization of BEST1 in epithelial cells. Compounds were tested separately at 10 μM concentration in a 96-well format. After compound addition for 24 h, cells were subjected to an inwardly directed I— gradient to drive I— influx and produce decreasing (quenched) fluorescence signals. […]

Row | effect on BEST1-mediated I- influx | Compound
22 | no effect | COc1ccc(-c2coc3cc(O)cc(O)c3c2=O)cc1 [Biochanin A]
